The results in this text go back to ChEMBL document CHEMBL1131452 (J Med Chem, 1998).

Broadly, the IC50 is the concentration needed to halve the response being measured.

Some results are limits rather than exact numbers.

The species entered for assay [1] is Homo sapiens. As to the kind of experiment: Evaluated in vitro for its inhibitory activity on LPS-induced TNF-Alpha release in human whole blood. The class given is functional, organism-based.
The target of assay [2] is 3',5'-cyclic-AMP phosphodiesterase 4A (Homo sapiens, UniProt P27815). As to the kind of experiment: Evaluated in vitro for its inhibitory activity on unpurified recombinant Phosphodiesterase type 4A (PDE4A).
Assay [3] has as its target 3',5'-cyclic-AMP phosphodiesterase 4C (Homo sapiens, UniProt Q08493). As to the kind of experiment: Evaluated in vitro for its inhibitory activity on unpurified recombinant Phosphodiesterase 4C.
For assay [4], the target named is 3',5'-cyclic-AMP phosphodiesterase 4B (Homo sapiens, UniProt Q07343). Nature of the assay: Inhibition of recombinant human Phosphodiesterase 4B.
The target in assay [5] is 3',5'-cyclic-AMP phosphodiesterase 4D (Homo sapiens, UniProt Q08499). Nature of the assay: In vitro inhibitory activity on unpurified recombinant Phosphodiesterase 4D.
The species entered for assay [6] is Homo sapiens. Nature of the assay: Evaluated in vitro for its inhibitory activity on LPS-induced TNF-Alpha release in human monocyte. The class given is functional.
Assay [7] has as its target Phosphodiesterase 4 (Homo sapiens, UniProt P27815+Q08499+Q07343+Q08493). Nature of the assay: Evaluated in vitro for its inhibitory activity on human monocyte cytosol Phosphodiesterase type 4 (PDE4). The class given is protein assay.

Sequence of 3',5'-cyclic-AMP phosphodiesterase 4B (Q07343 whole entry): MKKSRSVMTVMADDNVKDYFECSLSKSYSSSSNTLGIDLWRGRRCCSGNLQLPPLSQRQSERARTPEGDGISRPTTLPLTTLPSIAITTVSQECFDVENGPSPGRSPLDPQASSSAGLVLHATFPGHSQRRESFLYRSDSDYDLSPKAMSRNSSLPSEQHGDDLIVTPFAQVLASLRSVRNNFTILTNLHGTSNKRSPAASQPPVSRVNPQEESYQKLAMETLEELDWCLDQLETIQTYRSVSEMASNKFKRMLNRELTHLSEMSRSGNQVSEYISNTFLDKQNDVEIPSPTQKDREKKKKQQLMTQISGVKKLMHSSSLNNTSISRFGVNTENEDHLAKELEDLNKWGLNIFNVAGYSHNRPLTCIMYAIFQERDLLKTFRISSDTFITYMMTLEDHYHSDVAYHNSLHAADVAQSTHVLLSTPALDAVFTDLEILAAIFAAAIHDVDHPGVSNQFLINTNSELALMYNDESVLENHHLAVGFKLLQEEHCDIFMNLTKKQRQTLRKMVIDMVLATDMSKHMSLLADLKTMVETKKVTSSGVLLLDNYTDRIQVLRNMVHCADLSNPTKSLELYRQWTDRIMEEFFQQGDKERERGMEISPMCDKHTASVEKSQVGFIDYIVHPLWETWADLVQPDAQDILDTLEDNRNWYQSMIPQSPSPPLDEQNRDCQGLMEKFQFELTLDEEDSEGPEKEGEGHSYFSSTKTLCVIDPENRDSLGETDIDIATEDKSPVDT
Sequence of 3',5'-cyclic-AMP phosphodiesterase 4D (Q08499 whole entry): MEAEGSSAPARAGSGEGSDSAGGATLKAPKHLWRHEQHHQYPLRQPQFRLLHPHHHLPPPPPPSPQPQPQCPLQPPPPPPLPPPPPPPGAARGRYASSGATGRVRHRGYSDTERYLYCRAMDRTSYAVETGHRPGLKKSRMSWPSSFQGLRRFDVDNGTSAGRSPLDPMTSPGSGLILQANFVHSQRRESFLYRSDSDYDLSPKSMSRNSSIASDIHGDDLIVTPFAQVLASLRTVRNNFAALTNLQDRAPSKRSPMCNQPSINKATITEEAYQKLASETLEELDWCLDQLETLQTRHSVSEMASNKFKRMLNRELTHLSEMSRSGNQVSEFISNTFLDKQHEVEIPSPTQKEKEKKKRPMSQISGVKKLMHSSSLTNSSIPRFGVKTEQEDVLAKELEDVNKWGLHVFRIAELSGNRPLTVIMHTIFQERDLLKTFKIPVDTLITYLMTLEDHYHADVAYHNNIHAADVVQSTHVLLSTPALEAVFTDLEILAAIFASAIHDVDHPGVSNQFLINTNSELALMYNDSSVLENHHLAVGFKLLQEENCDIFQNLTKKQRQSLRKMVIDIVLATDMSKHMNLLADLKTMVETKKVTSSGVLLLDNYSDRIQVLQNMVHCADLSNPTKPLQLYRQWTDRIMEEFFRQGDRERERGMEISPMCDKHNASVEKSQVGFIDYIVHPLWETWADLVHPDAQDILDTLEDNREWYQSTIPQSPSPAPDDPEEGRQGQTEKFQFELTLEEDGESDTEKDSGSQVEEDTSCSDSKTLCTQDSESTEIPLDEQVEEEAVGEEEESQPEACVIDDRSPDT
Sequence of 3',5'-cyclic-AMP phosphodiesterase 4A (P27815 whole entry): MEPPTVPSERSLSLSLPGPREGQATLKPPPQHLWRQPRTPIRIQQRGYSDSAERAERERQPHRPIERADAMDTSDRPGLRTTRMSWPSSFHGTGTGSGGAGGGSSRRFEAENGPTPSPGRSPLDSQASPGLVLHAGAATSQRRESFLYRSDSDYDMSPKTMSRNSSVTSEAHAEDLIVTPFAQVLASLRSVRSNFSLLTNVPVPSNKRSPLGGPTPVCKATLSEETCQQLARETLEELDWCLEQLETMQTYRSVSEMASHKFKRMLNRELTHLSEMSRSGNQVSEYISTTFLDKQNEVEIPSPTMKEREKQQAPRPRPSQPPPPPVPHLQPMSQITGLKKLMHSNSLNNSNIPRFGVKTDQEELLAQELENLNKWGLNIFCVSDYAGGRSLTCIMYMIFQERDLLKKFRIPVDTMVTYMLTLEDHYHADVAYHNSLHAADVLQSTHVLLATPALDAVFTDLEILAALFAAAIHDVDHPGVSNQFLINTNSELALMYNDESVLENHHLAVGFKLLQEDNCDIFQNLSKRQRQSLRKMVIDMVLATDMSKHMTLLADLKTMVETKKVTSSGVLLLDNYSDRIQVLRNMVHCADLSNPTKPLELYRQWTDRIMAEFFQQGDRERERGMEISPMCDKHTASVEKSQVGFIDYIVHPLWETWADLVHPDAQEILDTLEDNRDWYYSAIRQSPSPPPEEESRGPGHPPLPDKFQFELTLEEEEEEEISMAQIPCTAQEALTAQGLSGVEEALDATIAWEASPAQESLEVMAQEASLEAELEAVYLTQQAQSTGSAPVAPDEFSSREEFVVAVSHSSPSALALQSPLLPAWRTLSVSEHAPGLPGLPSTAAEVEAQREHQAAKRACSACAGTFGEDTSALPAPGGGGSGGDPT
Sequence of 3',5'-cyclic-AMP phosphodiesterase 4C (Q08493 whole entry): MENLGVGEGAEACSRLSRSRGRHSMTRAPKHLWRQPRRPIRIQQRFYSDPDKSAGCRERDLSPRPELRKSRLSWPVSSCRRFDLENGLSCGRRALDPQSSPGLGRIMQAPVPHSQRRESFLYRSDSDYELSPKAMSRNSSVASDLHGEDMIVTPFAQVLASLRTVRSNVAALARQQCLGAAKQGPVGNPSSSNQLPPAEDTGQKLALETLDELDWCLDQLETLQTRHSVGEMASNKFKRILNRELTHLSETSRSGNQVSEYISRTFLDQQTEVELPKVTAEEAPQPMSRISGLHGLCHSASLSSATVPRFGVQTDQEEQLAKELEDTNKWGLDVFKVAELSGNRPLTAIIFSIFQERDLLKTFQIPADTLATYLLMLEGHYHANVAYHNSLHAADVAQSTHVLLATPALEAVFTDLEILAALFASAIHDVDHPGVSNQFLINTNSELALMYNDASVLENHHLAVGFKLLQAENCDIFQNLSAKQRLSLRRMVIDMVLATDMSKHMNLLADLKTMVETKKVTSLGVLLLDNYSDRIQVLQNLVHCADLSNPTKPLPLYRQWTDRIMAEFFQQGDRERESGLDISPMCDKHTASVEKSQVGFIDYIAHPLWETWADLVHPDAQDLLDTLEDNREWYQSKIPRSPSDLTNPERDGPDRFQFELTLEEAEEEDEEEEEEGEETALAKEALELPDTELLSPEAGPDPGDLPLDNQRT

Regarding `COc1ccc(C2=NOC(C(=O)NO)C2)cc1OC1CCCC1` (configuration not stated), the IC50 in assay [1] came to 30 nM; in assay [2], 2.2 nM; in assay [3], 18 nM; in assay [4], 2.1 nM; in assay [5] it was 2.7 nM.
Take `COc1ccc(C2=NOC(C(=O)O)C2)cc1OC1CCCC1` (configuration not stated): the IC50 in assay [6] stood at 35100 nM; in assay [7], 2540 nM.
As for `COc1ccc(C(=O)NCC(=O)O)cc1OC1CCCC1`, the concentration for half-maximal inhibition (IC50) in assay [6] is over 50000 nM; in assay [7], 1760 nM.
Consider `COc1ccc(C(=O)Nc2c(Cl)cncc2Cl)cc1OC1CCCC1`, for which the IC50 in assay [1] came to 80 nM; in assay [6], 2 nM.
With `COc1ccc(-c2cc(C(=O)NO)on2)cc1OC1CCCC1`, the 50% inhibitory concentration (IC50) in assay [6] is 848 nM; in assay [7], 1650 nM.
For the compound `COc1ccc(C2=NOC(C(=O)N(C)O)C2)cc1OC1CCCC1` (configuration not stated), the results for the IC50 in assay [6] and in assay [7] were 10200 nM and 3960 nM, respectively.
For the compound `COc1ccc(C(=O)NC(C)C(=O)NO)cc1OC1CCCC1` (configuration not stated), the half-inhibitory concentration (IC50) stood at 50 nM in assay [1]; 50.7 nM in assay [2]; 126 nM in assay [3]; 22.2 nM in assay [4]; 20.2 nM in assay [5].
In the case of `CCC1(C(=O)NO)CC(c2ccc(OC)c(OC3CCCC3)c2)=NO1` (configuration not stated), the 50% inhibitory concentration (IC50) in assay [6] amounted to 230 nM; in assay [7] it was 178 nM.
The like results for `COc1ccc(C2=NOC(CC(=O)NO)C2)cc1OC1CCCC1` (configuration not stated) were, in that order, 138 nM and 221 nM.
`CCCC1(C(=O)NO)CC(c2ccc(OC)c(OC3CCCC3)c2)=NO1` (configuration not stated): the results for the half-inhibitory concentration (IC50) in assay [6] and in assay [7] were 1020 nM and 567 nM, respectively.
Regarding `COc1ccc(C2=NOC(C)(C(=O)NO)C2)cc1OC1CCCC1` (configuration not stated), the IC50 in assay [1] came to 74 nM; in assay [2], 9.8 nM; in assay [3], 95.2 nM; in assay [4] it was 10.9 nM; in assay [5], 10 nM.
Take `COc1ccc(C(=O)NCC(=O)NO)cc1OC1CCCC1`: the IC50 in assay [1] came to 66 nM; in assay [6], 32 nM; in assay [7], 249 nM; in assay [2] it was 27.2 nM; in assay [3] it was 15.3 nM; in assay [4], 17.9 nM. Also, the half-maximal inhibitory concentration (IC50) in assay [5] came to 15.6 nM.
Regarding `COc1ccc(C2=NOC(C(N)=O)C2)cc1OC1CCCC1` (configuration not stated), the IC50 in assay [6] came to 4240 nM; in assay [7], 3930 nM.
Regarding `COc1ccc(C2CNC(=O)C2)cc1OC1CCCC1` (configuration not stated) [ROLIPRAM], the figures for the 50% inhibitory concentration (IC50) in assay [1] and in assay [6] were 660 nM and 379 nM, respectively.
